The source of these data is patent publication US11985975B1, “N-[(2-{[(furan-ylcarbonyl)carbamothioyl]amino }phenyl)carbamothioyl]furan-2-carboxamide as an eco-friendly insecticidal agent against Spodoptera littoralis (boisd.)” (KING FAISAL UNIVERSITY, priority 2023, dated 2024).

This assay deals with Spodoptera littoralis larvae (second and fourth instars). The assay can be described thus: Insecticidal bioassay screening (castor leaf dip), laboratory strain of cotton leafworm. The class given is in vivo. Conditions: for LC90 (mg/L) at 95%: after 72 hrs of treatment; for Toxicity index %: after 72 hrs, reference LC50/compound LC50 x 100; for LC50: Spodoptera littoralis, foliar. The procedure:
Five concentrations (200, 100, 50, 25, 12.5 ppm) were designed for this synthetic compound and the reference Diflubenzuron compound as the dynamic ingredients based on ppm via diluting the commercial formulation.
In this experiment, castor leaves are immersed in each of the previously prepared concentrations of the components for 10 seconds and then left to dry for 60 minutes. Larvae of the second and fourth instars of each checked strain are prepared with treated leaves in gauze-covered glass containers for 72 hrs. An untreated control is made in which leaves are dipped in triton x-100 and distilled water only. Then the preserved leaves were removed & fresh, untreated leaves were provided for 72 hours. Three replicates (10 larvae each) were checked for each concentration. Daily inspection was carried out for all treatments and mortality percentages were recorded 3 days (72 hours) after treatment. The average mortality percentage was corrected employing Abbott's formula. The corrected mortality rate for each of the previously synthesized compounds is statistically calculated according to Finney (1970). Through this rate, the corresponding concentration test lines (LDP lines) are assessed.

Setting [1] is: 72 h, read-out: LC50 (mg/L) at 95%, 2nd instar larvae, after 72 hrs of treatment.
Where [2] appears, read: 72 h, read-out: LC50 (mg/L) at 95%, 4th instar larvae, after 72 hrs of treatment.
The mark [3] stands for this setting: against Spodoptera littoralis under laboratory conditions (instar not stated).

The structures appear in SMILES notation. In brackets after ≈: the same amount, converted by molar mass. Like-named read-outs stand apart in the source and are kept apart here.

Consider `O=C(NC(=O)c1c(F)cccc1F)Nc1ccc(Cl)cc1` [Diflubenzuron, reference compound], for which the “LC90 (mg/L) at 95%” value by setting is: (2nd instar larvae) 520.0 mg/L (≈ 1670 µM); (4th instar larvae) 1540.5 mg/L (≈ 4960 µM). The Toxicity index % reads like this: (2nd instar larvae) 100%; (4th instar larvae) 100%. In addition, the LC50 under setting [1] is 45.2 mg/L (≈ 145 µM), the LC50 under setting [2] was 144 mg/L (≈ 464 µM) and the LC50 under setting [3] was determined as 45.2 mg/L (≈ 145 µM).

For the compound `O=C(NC(=S)Nc1ccccc1NC(=S)NC(=O)c1ccco1)c1ccco1` [Compound 2, N-[(2-{[(furan-ylcarbonyl)carbamothioyl]amino}phenyl)carbamothioyl]furan-2-carboxamide], the “LC90 (mg/L) at 95%” value (2nd instar larvae) is on record as 7450.5 mg/L (≈ 18000 µM) and the “LC90 (mg/L) at 95%” value (4th instar larvae) worked out at 1837.2 mg/L (≈ 4430 µM). Moreover, the Toxicity index % is on record as 10.6% (2nd instar larvae) and 14.7% (4th instar larvae). Also, the LC50 under setting [1] turned out to be 424 mg/L (≈ 1020 µM), the LC50 under setting [2] is 976 mg/L (≈ 2350 µM) and the LC50 under setting [3] stood at 424 mg/L (≈ 1020 µM). Moreover, under “compared with reference insecticide Diflubenzuron”, the “Insecticidal activity (in words)” value is recorded as “active against Spodoptera littoralis”.
